Molecules are shown by their SMILES. Active and inactive are the calls of the source. No rule for the calls is given here. A value given as a limit tells only on which side of the number the result lay.

The test concerns the target MEK5 PB1 domain binding to MEKK2 (MAP3K2) mutant PB1, human. Put plainly: mutant MEKK2-MEK5 PB1 binding inhibitors, SAR follow-up, biochemical, bead multiplex flow cytometry (AID 2151). The conditions noted are these: Bead-based multiplex flow cytometry.
As for `c1csc(Cc2nn3c(-c4ccncc4)nnc3s2)c1`, the EC50 is > 30 µM (inactive).

As to `COc1cccc(-c2nn3c(-c4ccccn4)nnc3s2)c1`, the EC50 is > 30 µM (inactive).

For the molecule `COc1cc([N+](=O)[O-])ccc1-c1nn2c(-c3ccco3)nnc2s1`, the EC50 was > 30 µM (inactive).

As to `c1ccc(-c2nnc3sc(C4CCCCCC4)nn23)nc1`, the EC50 was > 30 µM (inactive).

`c1ccc(-c2nnc3sc(C4CCCCC4)nn23)nc1`: the EC50 was > 30 µM (inactive).

Regarding `c1coc(-c2nnc3sc(C4CCCCC4)nn23)c1`, the EC50 was > 30 µM (inactive).

With `CCOc1cccc(-c2nn3c(-c4cccs4)nnc3s2)c1`, the EC50 is > 30 µM (inactive).

In the case of `c1c[nH]c(-c2nn3c(-c4ccco4)nnc3s2)c1`, the EC50 is > 30 µM (inactive).

`CCOc1cccc(-c2nn3c(-c4ccco4)nnc3s2)c1`: the EC50 is > 30 µM (inactive).

With `c1ccc(-c2nnc3sc(-c4ccc[nH]4)nn23)nc1`, the EC50 was > 30 µM (inactive).

On to `COc1cc([N+](=O)[O-])ccc1-c1nn2c(-c3ccccn3)nnc2s1`, for which the EC50 was > 30 µM (inactive).

On to `c1coc(-c2nnc3sc(C4CCCCCC4)nn23)c1`, for which the EC50 is > 30 µM (inactive).

For `COc1ccc(-c2nn3c(-c4ccccn4)nnc3s2)cc1OC`, the EC50 was > 30 µM (inactive).

The record behind these values is PubChem BioAssay AID2151 (NMMLSC, 2009).
